Experiments:
[1] = test system: neural stem and progenitor cells in the dentate gyrus; assay: Neural stem and progenitor cell proliferation: BrdU labeling in dentate gyrus 24 hr after single AIT-082 dose; assay type: in vivo; settings: adult mice, single intraperitoneal dose 0.1-10 mg/kg, perfused at 24 hr; normalized to saline control, two experiments combined (FIG. 2)
Experimental: In two separate experiments, AIT-082 was administered intraperitoneally to adult mice (5-7 per group) at 0.01-100 mg/kg. Saline was given as a negative control. Starting two hours after AIT-082 administration, animals received four intraperitoneal injections of bromodeoxyuridine (BrdU; 50 mg/kg each) at 3 hr intervals. BrdU is a thymidine analogue that is incorporated into DNA during synthesis and thus labels newly formed cells. Animals were perfused at 24 hr after the AIT-082 administration. This treatment regimen is outlined in FIG. 1.
Animals were perfused transcardially with 50 mL ice-cold phosphate buffered saline (PBS) and then 100 mL of 4% paraformaldehyde in PBS. Brains were removed, post-fixed in 4% paraformaldehyde for 24 hr at 4° C., and then transferred to 30% sucrose at 4° C. for a minimum of 3 days before sectioning. Coronal sections (40 μm) were prepared using a freezing microtome and stored in cryoprotectant at −20° C. before immunostaining for BrdU.
Every sixth section through the rostral-caudal extent of the hippocampus was immunostained for BrdU with mouse anti-BrdU paired with a biotinylated goat anti-mouse IgG. Avidin-biotin-horseradish peroxidase (HRP) complex was applied to sections and immunoreactivity visualized by reacting diaminobenzidine with the HRP. Stereological techniques were used to estimate the total number of BrdU-positive cells in the dentate gyrus.

[2] = test system: neural stem and progenitor cells in the dentate gyrus; assay: Neural stem and progenitor cell differentiation: BrdU/NeuN/S100β colocalization in dentate gyrus 42 days after single AIT-082 dose; assay type: in vivo; settings: adult mice
Experimental: AIT-082 was administered intraperitoneally to adult mice (5-7 per group) at a dose of 1 -100 mg/kg. Saline was given as a negative control. Starting two hours after AIT-082 administration, animals received four intraperitoneal injections of bromodeoxyuridine (BrdU; 50 mg/kg each) at 3 hr intervals. Animals were perfused at 42 days after the AIT-082 administration. During these 42 days newly born neural stem cells have enough time to differentiate into neurons, astrocytes and other brain cells. This treatment regimen is outlined in FIG. 3.
Animals were perfused, brains treated and sections prepared as described for Example 1.
Every sixth section through the rostral-caudal extent of the hippocampus was immunostained with rat anti-BrdU paired with a Alexa 568 goat anti-rat IgG (red), mouse anti-NeuN (a neuronal marker) paired with Alexa 488 goat anti-mouse IgG (green), and rabbit anti-S100β (an astrocytes marker) paired with Alexa 647 goat anti-rabbit IgG (blue). Stereological techniques were used to estimate the total number of BrdU-positive nuclei in the dentate gyrus and the number of BrdU-positive cells that were also positive for NeuN (i.e indicating newly formed neurons) or S100β (indicating newly formed astrocytes). Cells that were BrdU-positive and not positive for either NeuN or S100β were labeled “other”. […]

SMILES: O=C(CCn1cnc2c(=O)[nH]cnc21)Nc1ccc(C(=O)O)cc1 [AIT-082, N-4-[[3-(6-oxo-1,6-dihydropurin-9-yl)-1-oxopropyl]amino] benzoic acid]
- total number of BrdU-positive cells in dentate gyrus [1]: statistically significant increase
- number of BrdU-positive cells in dentate gyrus ([2]; single intraperitoneal dose 1 or 10 mg/kg, perfused at 42 days (FIG. 5A)): increase
- number of new neurons formed in the dentate gyrus (BrdU- and NeuN-positive cells) ([2]; single intraperitoneal dose, perfused at 42 days (FIG. 5B)): significant increase
